Molecular target: T1, Sortase A (SrtA) (Staphylococcus aureus, UniProt Q2FV99)
T1 sequence (Q2FV99 60-206 limits assumed): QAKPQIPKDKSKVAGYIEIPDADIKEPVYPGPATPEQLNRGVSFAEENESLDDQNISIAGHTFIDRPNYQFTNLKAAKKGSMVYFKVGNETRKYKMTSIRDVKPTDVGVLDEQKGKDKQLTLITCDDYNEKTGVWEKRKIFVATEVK
Assay: fluorescence quenching
Assay type: binding

Oc1cc(O)c2cc(O)c(-c3ccc(O)c(O)c3)[o+]c2c1 [cyanidin chloride] gave a Kd of 13.8 µM.

Reference: PMC9397467 (Virulence, 2022)
